Consider two compounds from publication PMC6458995, “MAP4K4 Inhibition Promotes Survival of Human Stem Cell-Derived Cardiomyocytes and Reduces Infarct Size In Vivo” (Cell Stem Cell, 2019).

The target in one test is T1, endogenous MAP4K4 (Homo sapiens, UniProt O95819).
T1 construct: endogenous in cells; host or cells: HEK293T
Briefly: In-cell MAP4K4 activity, immune complex kinase assay in HEK293T cells. The class given is cell-based. The note with it: HEK-293T, 1 h after treatment. Here is the method: MAP4K4 was precipitated using M2 antibody to the FLAG epitope, or antibody to endogenous MAP4K4, and protein G-Sepharose. Precipitates were washed twice in lysis buffer, twice with 500 mM LiCl, 100 mM Tris-HCl, pH 7.6, 0.1% Triton X-100, twice with kinase buffer (20 mM MOPS, pH 7.6, 2 mM EGTA, 10 mM MgCl2, 1 mM dithiothreitol, 0.1% Triton X-100, 1 mM Na3VO4), and were then mixed with 10 μg of myelin basic protein (Invitrogen) as substrate, 15 μM ATP, and 10 μCi [γ-^32P]ATP in […] of kinase buffer for 30 min at 30°C ([Yao et al., 1999]). His-MKK6 was used as the substrate for TAK1 ([Zhang et al., 2000]). Reaction mixtures were resolved by SDS-polyacrylamide gel electrophoresis, then were analyzed by western blotting and autoradiography.

In another test the test system is infarct size. The test can be described thus: Myocardial infarction (ischemia-reperfusion), infarct size by TTC/Evans blue. The note with it: 50 mg kg^−1 twice by gavage 10 h apart. The class given is in vivo, CD-1 female mice.
The subject of the next test is NUAK. Briefly: HTRF Transcreener ADP kinase assay. In kind it is biochemical, human.
A further test relates to cardiomyocyte apoptosis. Briefly: Cardiomyocyte apoptosis after myocardial infarction (TUNEL staining). In kind it is in vivo, mice. The note with it: post-injury study. Here is the method: Mice were treated subcutaneously with 0.024 mg buprenorphine (average, 1.1 mg kg^-1; […] Animal Health), intubated, and ventilated using a tidal volume of 250 μL and respiratory rate of 150 breaths min^-1 (Hugo-Sachs MiniVent type 845; Harvard Apparatus). After a left thoracotomy in the fourth intercostal space, the pericardium was removed. A 6-0 polypropylene suture was used to […] anterior descending coronary artery (LAD) and tied against a short section of PE-50 polyethylene tubing for 45 min; blood flow was re-established by removing the tubing, releasing the ligature. Ischemia and reperfusion were substantiated by reversible distal blanching and ST segment elevation. Mice were allowed to recover in a heated chamber for 20 min, then moved to a normal holding cage with supplemental heat if necessary. […] Nuclei were stained with 2.5 μg ml^-1 diamidinophenolindole (DAPI). Alternatively, fixed frozen sections were used. Cleaved DNA (apoptotic cells) was visualized using TUNEL ApopTag Kits (Millipore). Cardiomyocytes were identified using MF20 antibody to sarcomeric myosin heavy chains (MyHC; R&D Systems) (fluorescein-conjugated: Figure S3C; unconjugated, plus Alexa Fluor-555 anti-mouse IgG: Figure […]; conjugated and unconjugated mouse IgG2b were the respective controls). Sections were counterstained with DAPI and treated with Prolong Gold Antifade Mountant (Life Technologies). […]

In another test the test system is vCor.4U cells. The test can be described thus: Mitochondrial function (Seahorse XFe24, OCR and ECAR). In kind it is cell-based, human. The note with it: menadione 15 μM, 2 h. Here is the method: Mitochondrial function in hiPSC-CMs was determined using a Seahorse XFe24 Analyzer. vCor.4U cells (60,000 well^-1) were transferred to 0.1% gelatin-coated XF24 plates and maintained for 5 d, as described above. On day 6, DMX-5804 was added 45 min prior to challenge with menadione for 2 h. The medium was replaced 1 hr before the assay, using bicarbonate-free Seahorse assay medium (8.3 g L^-1 DMEM Base (Sigma-Aldrich), 10 mM glucose, 2 mM L-alanyl-L-glutamine dipeptide (Glutamax-1, GIBCO), 1 mM sodium pyruvate (GIBCO), pH 7.4). Cells were maintained at 37°C without supplemental CO2 starting 1 hr before the assay (IL10 incubator, VWR). For each state measured, three assay cycles were performed (4 min mixing, 2 min wait, and 2 min measurement periods, with readings every 15 s). The basal oxygen consumption rate (OCR) and extracellular acidification rate (ECAR) were determined, followed by sequential injection of 1 μM oligomycin A (Abcam) to inhibit ATP synthase, 0.5 μM […] (FCCP; Abcam) to uncouple oxidative phosphorylation, and 1 μM antimycin A/rotenone (Sigma, Abcam) to inhibit mitochondrial complex III and I. For each condition, 12 wells were tested, comprising 4 independent experiments.

Each structure is given as a SMILES string.

T1 sequence (O95819 whole entry): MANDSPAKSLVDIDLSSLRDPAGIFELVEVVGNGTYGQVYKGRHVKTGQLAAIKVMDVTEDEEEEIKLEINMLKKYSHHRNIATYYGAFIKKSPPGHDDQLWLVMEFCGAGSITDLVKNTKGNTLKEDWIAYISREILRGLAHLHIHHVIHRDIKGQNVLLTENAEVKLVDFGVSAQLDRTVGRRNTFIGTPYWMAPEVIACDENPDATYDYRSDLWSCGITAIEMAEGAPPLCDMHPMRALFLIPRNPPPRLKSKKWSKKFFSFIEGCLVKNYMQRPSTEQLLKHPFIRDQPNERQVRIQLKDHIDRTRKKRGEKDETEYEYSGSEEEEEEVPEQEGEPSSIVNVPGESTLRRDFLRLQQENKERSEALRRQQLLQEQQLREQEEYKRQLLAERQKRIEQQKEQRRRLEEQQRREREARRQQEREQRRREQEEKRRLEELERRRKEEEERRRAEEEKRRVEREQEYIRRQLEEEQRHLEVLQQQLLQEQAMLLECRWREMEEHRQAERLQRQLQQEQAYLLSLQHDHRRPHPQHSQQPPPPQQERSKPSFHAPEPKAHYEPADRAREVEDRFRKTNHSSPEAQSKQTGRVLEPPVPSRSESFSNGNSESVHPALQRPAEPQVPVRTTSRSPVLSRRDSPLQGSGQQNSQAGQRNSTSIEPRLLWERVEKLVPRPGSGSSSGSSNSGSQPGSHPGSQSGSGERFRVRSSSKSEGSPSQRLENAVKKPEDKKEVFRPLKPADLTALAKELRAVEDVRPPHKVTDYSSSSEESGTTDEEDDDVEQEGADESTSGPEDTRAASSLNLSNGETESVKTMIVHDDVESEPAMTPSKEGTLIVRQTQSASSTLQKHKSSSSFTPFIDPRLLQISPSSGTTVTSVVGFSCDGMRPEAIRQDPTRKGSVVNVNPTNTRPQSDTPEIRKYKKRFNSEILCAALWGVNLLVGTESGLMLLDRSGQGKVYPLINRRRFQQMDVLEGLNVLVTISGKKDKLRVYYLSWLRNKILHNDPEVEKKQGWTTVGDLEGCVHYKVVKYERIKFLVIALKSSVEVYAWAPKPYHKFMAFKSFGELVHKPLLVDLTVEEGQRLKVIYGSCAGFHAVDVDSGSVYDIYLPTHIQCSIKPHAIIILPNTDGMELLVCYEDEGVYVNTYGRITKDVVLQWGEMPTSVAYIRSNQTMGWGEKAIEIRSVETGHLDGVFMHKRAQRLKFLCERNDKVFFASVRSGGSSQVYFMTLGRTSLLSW

The term inhibition denotes the relative decrease from the control value, in per cent. Regarding `Oc1ncnc2c1c(-c1ccccc1)cn2-c1ccccc1` [F1386-0303, 5,7-diphenyl-7H-pyrrolo[2,3-d]pyrimidin-4-ol], at endogenous MAP4K4, at 10 µM the inhibition was 70%.

Turning to `COCCOc1ccc(-c2cn(-c3ccccc3)c3nc[nH]c(=O)c23)cc1` [DMX-5804, 5-[4-(2-methoxy-ethoxy)-phenyl]-7-phenyl-3,7-dihydro-pyrrolo[2,3-d]pyrimidin-4-one], the “infarct size as a proportion of the area at ischemic risk” value with infarct size (post-injury treatment (1 h after reperfusion), vehicle 55.1%) was 25.6%. Further, in the test on infarct size (pre-injury treatment (20 min prior to ischemia), vehicle 48.5%), the “infarct size as a proportion of the area at ischemic risk” value was found to be 20.9%. The “Fold Selectivity” value in the test with NUAK (NUAK versus MAP4K4) is listed as 47. For the same compound, the “DMX-5804 vs F1386-0303” value in the test on NUAK (ratio of fold selectivity, NUAK) is recorded as 2.35. In addition, in the test on cardiomyocyte apoptosis, the “suppression of cardiomyocyte apoptosis in adjacent jeopardized myocardium” value is 52% and the “suppression of cardiomyocyte apoptosis within the infarct” value stood at 39%. For the same compound, in the test with vCor.4U cells (10 μM), the extracellular acidification rate entry was “partially rescued” and the “improvement of residual maximum oxidative capacity” value is 5 fold. Besides, the “maximum oxidative capacity at lesser concentrations” value in the test with vCor.4U cells (below 10 μM) is given as “No significant benefits”.
